The structures appear in SMILES notation. A value given as a limit tells only on which side of the number the result lay.

For 17 compounds, IC50 and GI50 results are on record in US20260250289A1, “BICYCLIC HETEROCYCLES AND THEIR USE AS WRN INHIBITORS” (Novartis AG, priority 2022, published 2026).

For experiment [1], the target named is T1, WRN helicase (aa N517-P1238) (Homo sapiens, UniProt Q14191).
T1 construct: The core helicase motif of the WRN protein (aa N517-P1238) was produced for this assay; His (N); ZZ (N); 3C protease cleavage site (N); made in house; host or cells: Sf21 insect cells (baculovirus; virus and BIICs made in SF9)
Kind of experiment: WRN ATPase assay (DNA dependent ATP hydrolysis, ADP-Glo). The format is biochemical. Conditions: 3 hours pre-incubation, 300 micromolar ATP, FLAP26 DNA; geometric mean of at least 2. A digest of the protocol: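 DNA-dependent ATP hydrolysis detected as ADP by ADP-Glo luminescence, using 300 μM ATP, 0.2 nM FLAP26 substrate and 10 nM WRN aa N517-P1238 (Tris pH 7.5 buffer, 2 mM MgCl2, 50 mM NaCl). IC50s fitted from normalized duplicate half-log dilutions; reported as geometric means of at least 2 replicates.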
(In general: In ADP-Glo the light output rises with the ADP produced.)

The subject of the next experiment is SW48 cells. Kind of experiment: Proliferation assay SW48 (CellTiterGlo). The format is cell-based. Conditions: Homo sapiens, SW48, 96 h, SW48 colon carcinoma cells, 96 hours, CellTiterGlo; geometric mean of at least 2; read-out: Proliferation Assay SW48 GI50. A digest of the protocol:
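Read-out is CellTiterGlo luminescence after 96 hours of compound exposure, with % growth calculated against day-0 and vehicle-treated ATP levels. SW48 seeded at 2,000 cells/well, dosed next day with eight 3-fold serial dilutions, 0.1% DMSO. GI50 reported as geometric mean, at least 2 replicates.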

The test system of another experiment is DLD1-WRN-KO cells. As to the kind of experiment: Proliferation assay DLD1-WRN-KO (CellTiterGlo, off-target effects). The format is cell-based. Conditions: 96 hours, geometric mean of at least 2. A digest of the protocol:
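DLD1 cells with CRISPR knockout of WRN were exposed overnight-seeded to eight 3-fold compound dilutions (0.1% DMSO) for 96 h at 37 °C. Viability was read as ATP by CellTiterGlo luminescence against a day-0 plate, giving GI50 and residual viability at top concentration.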
On the technique in general: Cellular ATP, detected with luciferase, serves as a proxy for viable cell number.

T1 sequence (Q14191 517-1238): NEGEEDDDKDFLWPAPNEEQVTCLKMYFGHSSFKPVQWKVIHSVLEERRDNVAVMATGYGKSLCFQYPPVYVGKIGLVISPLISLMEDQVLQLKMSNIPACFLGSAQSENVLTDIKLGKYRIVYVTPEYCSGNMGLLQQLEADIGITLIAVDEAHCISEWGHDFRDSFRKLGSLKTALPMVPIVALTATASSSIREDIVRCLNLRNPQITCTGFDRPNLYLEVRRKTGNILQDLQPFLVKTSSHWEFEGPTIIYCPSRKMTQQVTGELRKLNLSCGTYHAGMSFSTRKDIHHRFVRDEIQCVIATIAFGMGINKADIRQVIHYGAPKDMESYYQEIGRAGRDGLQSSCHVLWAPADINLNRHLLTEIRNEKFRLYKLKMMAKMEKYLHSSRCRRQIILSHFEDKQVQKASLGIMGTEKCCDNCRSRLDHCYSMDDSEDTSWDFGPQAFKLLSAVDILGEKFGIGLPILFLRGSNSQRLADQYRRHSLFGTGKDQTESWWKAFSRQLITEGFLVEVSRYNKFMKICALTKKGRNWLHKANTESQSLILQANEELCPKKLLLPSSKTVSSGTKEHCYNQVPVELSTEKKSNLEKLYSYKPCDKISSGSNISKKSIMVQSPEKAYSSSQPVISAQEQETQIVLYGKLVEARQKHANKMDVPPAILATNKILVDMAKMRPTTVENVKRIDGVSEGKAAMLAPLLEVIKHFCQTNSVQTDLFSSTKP

A word on the IC50: it is the point on the concentration scale where inhibition reaches its midpoint. A low value points to inhibition by little substance. As for `Cc1c(C2CCN(C(=O)c3c(F)ccc(F)c3O)CC2)c(=O)n2nc(C3=CCCCO3)nc2n1CC(=O)Nc1ccc(C(F)(F)F)cc1` [Example 137, 2-(6-(1-(3,6-difluoro-2-hydroxybenzoyl)piperidin-4-yl)-2-(3,4-dihydro-2H-pyran-6-yl)-5-methyl-7-oxo-[1,2,4]triazolo[1,5-a]pyrimidin-4(7H)-yl)-N-(4-(trifluoromethyl)phenyl) acetamide], the midpoint of inhibition in experiment [1], the IC50, lay at 50 nM. The GI50 in the experiment with SW48 cells was 300 nM; in the experiment on DLD1-WRN-KO cells, more than 10000 nM.
For `CCc1c(N2CCN(C(=O)c3ncnc(C)c3OC)CC2)c(=O)n2nc(C3=CCOCC3)nc2n1CC(=O)Nc1ccc(C(F)(F)F)cc1C` [Example 34, 2-(2-(3,6-dihydro-2H-pyran-4-yl)-5-ethyl-6-(4-(5-methoxy-6-methylpyrimidine-4-carbonyl)piperazin-1-yl)-7-oxo-[1,2,4]triazolo[1,5-a]pyrimidin-4(7H)-yl)-N-(2-methyl-4-(trifluoromethyl)phenyl)acetamide], the midpoint of inhibition in experiment [1], the IC50, lay at 5000 nM. In addition, the GI50 in the experiment on SW48 cells is 7000 nM; with DLD1-WRN-KO cells it was more than 10000 nM.
The like results for `COC(=O)N1CCN(c2nc3n(CC(=O)Nc4ccc(S(F)(F)(F)(F)F)cc4)c(C)c(N4CCN(C(C)=O)CC4)c(=O)n3n2)CC1` [Example 81, methyl 4-(6-(4-acetylpiperazin-1-yl)-5-methyl-7-oxo-4-(2-oxo-2-((4-(pentafluoro-l6-sulfaneyl)phenyl)amino)ethyl)-4,7-dihydro-[1,2,4]triazolo[1,5-a]pyrimidin-2-yl)piperazine-1-carboxylate] were, in that order, 300 nM, 4000 nM and more than 10000 nM.
Compound `CC(=O)N1CCN(c2c(C)n(CC(=O)Nc3ccc(C(F)(F)F)cc3)c3nc(N4CCC5(CCCO5)CC4)nn3c2=O)CC1` [Example 122, 2-(6-(4-acetylpiperazin-1-yl)-5-methyl-7-oxo-2-(1-oxa-8-azaspiro[4.5]decan-8-yl)-[1,2,4]triazolo[1,5-a]pyrimidin-4(7H)-yl)-N-(4-(trifluoromethyl)phenyl)acetamide] returned an IC50 in experiment [1] of 700 nM. The GI50 in the experiment on SW48 cells is 5000 nM; in the experiment on DLD1-WRN-KO cells it was more than 10000 nM.
`Cc1c(C2CCN(C(=O)c3c(F)ccc(F)c3O)CC2)c(=O)n2nc(C3=CCOCC3)nc2n1CC(=O)Nc1ccc(C(F)(F)F)cc1` [Example 136, 2-(6-(1-(3,6-difluoro-2-hydroxybenzoyl)piperidin-4-yl)-2-(3,6-dihydro-2H-pyran-4-yl)-5-methyl-7-oxo-[1,2,4]triazolo[1,5-a]pyrimidin-4(7H)-yl)-N-(4-(trifluoromethyl)phenyl)acetamide] displayed a half-inhibitory concentration (IC50) in experiment [1] of 20 nM. For the same compound, the GI50 in the experiment on SW48 cells was 500 nM; with DLD1-WRN-KO cells, more than 10000 nM.
Compound `CC(=O)N1CCN(c2c(C)n(CC(=O)Nc3ccc(C(F)(F)F)cc3)c3nc(-c4ccc(F)cc4)nn3c2=O)CC1` [Example 124, 2-(6-(4-acetylpiperazin-1-yl)-2-(4-fluorophenyl)-5-methyl-7-oxo-[1,2,4]triazolo[1,5-a]pyrimidin-4(7H)-yl)-N-(4-(trifluoromethyl)phenyl) acetamide] registered an IC50 in experiment [1] of 700 nM. Moreover, the GI50 in the experiment on SW48 cells is 4000 nM; with DLD1-WRN-KO cells it was more than 10000 nM.
In turn, `CCc1c(N2CCN(C(=O)c3nn(C)c(=O)[nH]3)CC2)c(=O)n2nc(C3=CCC(OC)CC3)nc2n1CC(=O)Nc1ccc(C(F)(F)F)cc1` (stereo not drawn) [Example 53, 2-(5-ethyl-2-(4-methoxycyclohex-1-en-1-yl)-6-(4-(1-methyl-5-oxo-4,5-dihydro-1H-1,2,4-triazole-3-carbonyl)piperazin-1-yl)-7-oxo-[1,2,4]triazolo[1,5-a]pyrimidin-4(7H)-yl)-N-(4-(trifluoromethyl)phenyl)acetamide] registered an IC50 in experiment [1] of 60 nM. Further, the GI50 with SW48 cells was 800 nM; in the experiment with DLD1-WRN-KO cells it was more than 10000 nM.
Taken in the same sequence, the figures for `CC(=O)N1CCN(c2c(C)n(CC(=O)Nc3cc(F)c(C(F)(F)F)nc3Cl)c3nc(C4=CCOCC4)nn3c2=O)CC1` [Example 101, 2-(6-(4-acetylpiperazin-1-yl)-2-(3,6-dihydro-2H-pyran-4-yl)-5-methyl-7-oxo-[1,2,4]triazolo[1,5-a]pyrimidin-4(7H)-yl)-N-(2-chloro-5-fluoro-6-(trifluoromethyl)pyridin-3-yl)acetamide] were 2000 nM, 10000 nM and more than 10000 nM.
Compound `CC(=O)N1CCN(c2c(C)n(CC(=O)Nc3ccc(S(F)(F)(F)(F)F)cc3Cl)c3nc(C4=CCOCC4)nn3c2=O)CC1` [Example 73, 2-(6-(4-acetylpiperazin-1-yl)-2-(3,6-dihydro-2H-pyran-4-yl)-5-methyl-7-oxo-[1,2,4]triazolo[1,5-a]pyrimidin-4(7H)-yl)-N-(2-chloro-4-(pentafluoro-l6-sulfaneyl)phenyl)acetamide] yielded an IC50 in experiment [1] of 100 nM. Also, the GI50 in the experiment on SW48 cells was 2000 nM; in the experiment on DLD1-WRN-KO cells, more than 10000 nM.
The like results for `CC(=O)N1CCN(c2c(C)n(CC(=O)Nc3ccc(C(F)(F)F)cc3)c3nc(C4=CCOCC4)nn3c2=O)CC1C` (stereo not drawn) [Example 163, 2-(6-(4-acetyl-3-methylpiperazin-1-yl)-2-(3,6-dihydro-2H-pyran-4-yl)-5-methyl-7-oxo-[1,2,4]triazolo[1,5-a]pyrimidin-4(7H)-yl)-N-(4-(trifluoromethyl)phenyl)acetamide] were, in that order, 1000 nM, 7000 nM and more than 10000 nM.
Regarding `CC(=O)N1CCN(c2c(C)n(CC(=O)Nc3cc(C)c(C(F)(F)F)cc3Cl)c3nc(C4=CCOCC4)nn3c2=O)CC1` [Example 89, 2-(6-(4-acetylpiperazin-1-yl)-2-(3,6-dihydro-2H-pyran-4-yl)-5-methyl-7-oxo-[1,2,4]triazolo[1,5-a]pyrimidin-4(7H)-yl)-N-(2-chloro-5-methyl-4-(trifluoromethyl)phenyl)acetamide], the half-inhibitory concentration (IC50) in experiment [1] is 600 nM. The GI50 with SW48 cells was 3000 nM; in the experiment with DLD1-WRN-KO cells it was more than 10000 nM.
In experiment [1], `CC(=O)N1CCN(c2c(C)n(CC(=O)Nc3ccc(C(F)(F)F)cc3)c3nc(N4CCC(N(C)CC(F)F)CC4)nn3c2=O)CC1` [Example 113, 2-(6-(4-acetylpiperazin-1-yl)-2-(4-((2,2-difluoroethyl)(methyl)amino)piperidin-1-yl)-5-methyl-7-oxo-[1,2,4]triazolo[1,5-a]pyrimidin-4(7H)-yl)-N-(4-(trifluoromethyl)phenyl)acetamide] returned a half-inhibitory concentration (IC50) of 300 nM. Also, the GI50 is 5000 nM in the experiment with SW48 cells and more than 10000 nM with DLD1-WRN-KO cells.
Taken in the same sequence, the figures for `CC(=O)N1CCN(c2c(C)n(CC(=O)Nc3ccc(C(F)(F)F)c(F)c3C)c3nc(C4=CCOCC4)nn3c2=O)CC1` [Example 84, 2-(6-(4-acetylpiperazin-1-yl)-2-(3,6-dihydro-2H-pyran-4-yl)-5-methyl-7-oxo-[1,2,4]triazolo[1,5-a]pyrimidin-4(7H)-yl)-N-(3-fluoro-2-methyl-4-(trifluoromethyl)phenyl)acetamide] were 300 nM, 1000 nM and more than 10000 nM.
The compound `CC(=O)N1CCN(c2c(C)n(CC(=O)Nc3ccc(C(F)(F)F)cc3)c3nc(N4CC5CC5C4)nn3c2=O)CC1` (stereo not drawn) [Example 125, 2-(6-(4-acetylpiperazin-1-yl)-2-(3-azabicyclo[3.1.0]hexan-3-yl)-5-methyl-7-oxo-[1,2,4]triazolo[1,5-a]pyrimidin-4(7H)-yl)-N-(4-(trifluoromethyl)phenyl)acetamide] came in with a half-inhibitory concentration (IC50) in experiment [1] of 800 nM. For the same compound, the figures for the GI50 with SW48 cells and in the experiment with DLD1-WRN-KO cells were 3000 nM and more than 10000 nM, respectively.
The like results for `CC(=O)N1CCN(c2c(C)n(CC(=O)Nc3ccc(C(F)(F)F)cc3)c3nc(-c4ccccc4)nn3c2=O)CC1` [Example 130, 2-(6-(4-acetylpiperazin-1-yl)-5-methyl-7-oxo-2-phenyl-[1,2,4]triazolo[1,5-a]pyrimidin-4(7H)-yl)-N-(4-(trifluoromethyl)phenyl)acetamide] were, in that order, 900 nM, 2000 nM and 7000 nM.
The like results for `CCc1c(N2CCN(C(C)=O)CC2)c(=O)n2nc(C3=CCOCC3)nc2n1CC(=O)Nc1ccc(C(F)(F)F)cc1C` [Example 58, 2-(6-(4-acetylpiperazin-1-yl)-2-(3,6-dihydro-2H-pyran-4-yl)-5-ethyl-7-oxo-[1,2,4]triazolo[1,5-a]pyrimidin-4(7H)-yl)-N-(2-methyl-4-(trifluoromethyl)phenyl)acetamide] were, in that order, 100 nM, 2000 nM and more than 10000 nM.
Consider `CC(=O)N1CCN(c2c(C)n(CC(=O)Nc3ccc(C(F)(F)F)cc3)c3nc(N4CCC5CC54)nn3c2=O)CC1` (stereo not drawn) [Example 6, 2-(6-(4-acetylpiperazin-1-yl)-2-(2-azabicyclo[3.1.0]hexan-2-yl)-5-methyl-7-oxo-[1,2,4]triazolo[1,5-a]pyrimidin-4(7H)-yl)-N-(4-(trifluoromethyl)phenyl)acetamide], for which the midpoint of inhibition in experiment [1], the IC50, lay at 2000 nM. Further, the GI50 was 7000 nM in the experiment on SW48 cells and more than 10000 nM with DLD1-WRN-KO cells.
